# Data reported in US20100304384A1, “METHOD OF IDENTIFYING COMPOUNDS THAT INDUCE OR INHIBIT ENDOPLASMIC RETICULUM STRESS OR OXIDATIVE STRESS” (UNIVERSIDAD AUTONOMA DE MADRID, priority 2007, published 2010).
# Legend:
# Assay type in all cases: cell-based, human
# [1] = tested on: DDIT3 promoter (−1507G); test: Luciferase reporter activity in SK-N-MC cells stably transfected with pXP2 DDIT3(−1507G)-Luciferase (G7 cell line); details: −1507G construct, stable SK-N-MC cells, 15 hours of treatment; ± standard error of the mean
# Procedure: (§1) The cell lysate was assayed for the β-galactosidase activity, as an indicator of the transfection efficiency, and luciferase activity, as an indicator of the transcriptional activity of the promoters: • Assay of β-galactosidase activity. 50 μl of cell lysate are incubated in an E.L.I.S.A. plate with 50 μl of enzyme substrate (2 mM MgCl2—Merck—, 100 mM β-mercaptoethanol—Sigma—, 120 mM Na2HPO4, 80 mM NaH2PO4—both from Carlo Erba—and 1.33 mg/ml of ONPG (2-Nitrophenyl-β-D-galactopyranoside)—Sigma—). This reaction generates a colored product the concentration of which is measured as absorbance at 415 nm in an E.L.I.S.A. plate reader (Model 680, from BioRad). • Assay of luciferase activity. 40 μl of cell lysate are measured adding 100 μl of reagent of the enzyme (20 mM Tricin, […], 33.3 mM DTT, 270 μM Coenzyme A —all from Sigma—, 2.67 mM MgSO4, 0.1 mM EDTA—both from Merck—, 470 μM Luciferin potassium salt —Promega—and 530 μM ATP—Boehringer Mannheim—); alternatively, the one of the Luciferase Assay System kit—Promega—was used. The luminescence emission is recorded in a Monolight 2010 illuminometer (Analytical Luminescence Laboratory). […]
# (§2) The clones resistant to the antibiotic are isolated by aspiration with an automatic pipette and seeded in an M24 for the expansion thereof. The expression of luciferase is analyzed and the lines having greater luciferase activity are maintained. […]
# [2] = tested on: DDIT3 promoter (−1507C); test: Luciferase reporter activity in SK-N-MC cells stably transfected with pXP2 DDIT3(−1507C)-Luciferase (C1 cell line); details: −1507C construct, stable SK-N-MC cells, 15 hours of treatment; ± standard error of the mean
# Procedure: as §1, §2
# [3] = tested on: DDIT3 promoter; test: Luciferase reporter activity in SK-N-MC cells transiently transfected with pXP2-DDIT3 constructs; details: transient transfection, both allelic variants; alteration seen after 6 hours of treatment
# Procedure: On the day before the transfection 2×10^5 cells per well are seeded in a 24-well plate (M24, from Falcon). 0.7 μg of DNA per well are transfected mixing the plasmids pXP2-DDIT3 and pSV-β-galactosidase in a 1:1 ratio (0.35 μg of pXP2 and 0.35 μg of β-gal) with Lipofectamine Plus (from Life Technologies), following the manufacturer's indications, in a 1:3 DNA:Lipofectamine ratio and allowing the cells to incubate with the plasmid for 5 hours. Twenty-four hours after the transfection the cells are treated to see the response to the stimulus. […]
# as §1, with “50 μl of cell lysate are incubated in an E.L.I.S.A. plate with 50 μl of enzyme substrate (2 mM MgCl2—Merck—, 100 mM β-mercaptoethanol—Sigma—, 120 mM Na2HPO4, 80 mM NaH2PO4—both from Carlo Erba—and 1.33 mg/ml of ONPG (2-Nitrophenyl-β-D-galactopyranoside)—Sigma—).” left out, “used.” for “used. The luminescence emission is recorded in a Monolight 2010 illuminometer (Analytical Luminescence Laboratory).”
substance,measurement,setting,value
Tunicamycin [ERS],Luciferase activity with respect to the non-treated cells (activation of the DDIT3 promoter),[1],3.4 ± 0.3 times
same,Luciferase activity with respect to the non-treated cells (activation of the DDIT3 promoter),[2],4.6 ± 0.4 times
same,Transcriptional activity of the DDIT3 promoter after treatment,[3],increases significantly
